The supplement of paper PMC10307832

Key:
Assay in all cases: relative viability (nuclei count vs DMSO), 5 days (fraction); higher = more cells survive
[1] = compound: CN(C)C[C@@H]1CCn2cc(c3ccccc32)C2=C(C(=O)NC2=O)c2cn(c3ccccc23)CCO1 [Ruboxistaurin] + CS(=O)(=O)N1CCN(Cc2cc3nc(-c4cccc5[nH]ncc45)nc(N4CCOCC4)c3s2)CC1 [Pictilisib] (partner 1 µM)
Procedure, shortened: (§1)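 Cells from lung cancer lines were seeded into 1536-well plates and, one day later, dosed by pin tool. Treatments were either a single drug or a fixed dose of an anchor drug with five library-drug doses (not always all listed) in √10 steps. After 5 days, nuclei were stained in a one-step fixation (final 0.05% Triton X-100, 1% formaldehyde, 1 ug/ml Hoechst) and counted on 4× images, and relative viability is the treated-to-vehicle nuclei ratio, as the median of duplicate plates.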

[2] = compound: CN(C)C[C@@H]1CCn2cc(c3ccccc32)C2=C(C(=O)NC2=O)c2cn(c3ccccc23)CCO1 [Ruboxistaurin] + Cc1nc(NC(=O)N2CCC[C@H]2C(N)=O)sc1-c1ccnc(C(C)(C)C(F)(F)F)c1 [Alpelisib] (partner 2 µM)
Procedure, shortened: as §1

[3] = compound: CN(C)C[C@@H]1CCn2cc(c3ccccc32)C2=C(C(=O)NC2=O)c2cn(c3ccccc23)CCO1 [Ruboxistaurin] + O=C(CCCCCCC(=O)Nc1ccccc1)NO [Vorinostat] (partner 1 µM)
Procedure, shortened: as §1

[4] = compound: CN(C)C[C@@H]1CCn2cc(c3ccccc32)C2=C(C(=O)NC2=O)c2cn(c3ccccc23)CCO1 [Ruboxistaurin] + N=C(N)NC(=N)NCCc1ccccc1 [Phenformin] (partner 250 µM)
Procedure, shortened: as §1

[5] = compound: CN(C)C[C@@H]1CCn2cc(c3ccccc32)C2=C(C(=O)NC2=O)c2cn(c3ccccc23)CCO1 [Ruboxistaurin] + Cc1cc(Nc2cc(N3CCN(C)CC3)nc(Sc3ccc(NC(=O)C4CC4)cc3)n2)n[nH]1 [Tozasertib] (partner 0.1 µM)
Procedure, shortened: as §1

Cell Line | relative viability ([1]; first compound 0.08 µM) | relative viability ([1]; first compound 0.8 µM) | relative viability ([1]; first compound 2.53 µM) | relative viability ([1]; first compound 8 µM) | relative viability ([2]; first compound 0.08 µM) | relative viability ([2]; first compound 0.8 µM) | relative viability ([2]; first compound 2.53 µM) | relative viability ([2]; first compound 8 µM) | relative viability ([3]; first compound 0.08 µM) | relative viability ([3]; first compound 0.8 µM) | relative viability ([3]; first compound 2.53 µM) | relative viability ([3]; first compound 8 µM) | relative viability ([4]; first compound 0.08 µM) | relative viability ([4]; first compound 0.8 µM) | relative viability ([4]; first compound 2.53 µM) | relative viability ([4]; first compound 8 µM) | relative viability ([5]; first compound 0.08 µM) | relative viability ([5]; first compound 0.8 µM) | relative viability ([5]; first compound 2.53 µM) | relative viability ([5]; first compound 8 µM)
201T | 0.729 | 0.629 | 0.742 | 0.555 | 1.03 | 1.01 | 1.01 | 1.01 | 1 | 0.961 | 1.05 | 1.03 | 0.49 | 0.433 | 0.449 | 0.426 | 0.993 | 0.815 | 0.976 | 0.825
A-427 | 0.7 | 0.594 | 0.738 | 0.557 | 1.07 | 0.996 | 1.02 | 0.874 | 0.826 | 0.824 | 0.872 | 0.838 | 0.398 | 0.314 | 0.327 | 0.273 | 0.19 | 0.184 | 0.232 | 0.157
ABC-1 | 0.865 | 0.774 | 0.787 | 0.506 | 1.35 | 1.13 | 1.07 | 0.839 | 1.22 | 1.11 | 1.27 | 1.07 | 0.252 | 0.245 | 0.182 | 0.233 | 0.178 | 0.163 | 0.184 | 0.22
BEN | 0.604 | 0.538 | 0.535 | 0.406 | 1.06 | 1.07 | 0.973 | 0.787 | 0.608 | 0.544 | 0.6 | 0.585 | 0.26 | 0.292 | 0.248 | 0.245 | 0.492 | 0.45 | 0.498 | 0.483
CAL-12T | 0.482 | 0.349 | 0.395 | 0.386 | 1.47 | 1.17 | 1.27 | 1.13 | 0.937 | 0.473 | 0.744 | 0.941 | 0.597 | 0.585 | 0.568 | 0.563 | 0.371 | 0.292 | 0.301 | 0.211
COR-L23 | 0.802 | 0.688 | 0.676 | 0.59 | 0.804 | 0.814 | 0.73 | 0.695 | 0.61 | 0.442 | 0.522 | 0.501 | 0.408 | 0.41 | 0.519 | 0.493 | 0.221 | 0.167 | 0.202 | 0.153
COR-L 105 | 0.463 | 0.388 | 0.385 | 0.313 | 1.17 | 1.09 | 0.911 | 0.706 | 0.96 | 0.925 | 0.842 | 0.816 | 0.599 | 0.436 | 0.446 | 0.4 | 0.385 | 0.367 | 0.304 | 0.254
ChaGo-K-1 | 1.23 | 0.758 | 0.655 | 0.424 |  |  |  |  | 0.795 | 0.712 | 0.875 | 0.853 | 0.47 | 0.525 | 0.532 | 0.412 | 0.225 | 0.242 | 0.231 | 0.211
EKVX | 0.53 | 0.423 | 0.438 | 0.354 | 0.998 | 0.807 | 0.858 | 0.745 | 0.841 | 0.65 | 0.714 | 0.75 | 0.249 | 0.221 | 0.234 | 0.26 | 0.411 | 0.401 | 0.415 | 0.367
EMC-BAC-2 | 0.59 | 0.47 | 0.491 | 0.426 | 0.75 | 0.703 | 0.733 | 0.612 | 0.53 | 0.461 | 0.523 | 0.384 | 0.601 | 0.469 | 0.505 | 0.438 | 0.29 | 0.254 | 0.272 | 0.17
EPLC-272H | 0.341 | 0.303 | 0.343 | 0.294 | 1.1 | 0.807 | 0.901 | 0.846 | 0.498 | 0.48 | 0.357 | 0.429 | 0.338 | 0.301 | 0.297 | 0.349 | 0.205 | 0.247 | 0.253 | 0.247
H3255 | 0.566 | 0.521 | 0.498 | 0.462 | 0.738 | 0.698 | 0.654 | 0.521 | 0.717 | 0.717 | 0.815 | 0.898 | 0.354 | 0.326 | 0.345 | 0.352 | 0.658 | 0.603 | 0.714 | 0.836
HARA | 0.431 | 0.327 | 0.325 | 0.137 | 1.05 | 0.797 | 0.914 | 0.481 | 0.724 | 0.494 | 0.535 | 0.546 | 0.493 | 0.404 | 0.535 | 0.475 | 0.0939 | 0.101 | 0.12 | 0.102
HCC-15 | 0.774 | 0.689 | 0.558 | 0.662 | 0.867 | 0.714 | 0.909 | 0.743 | 0.975 | 0.74 | 0.925 | 0.833 | 0.513 | 0.46 | 0.486 | 0.504 | 0.461 | 0.255 | 0.297 | 0.188
HCC-44 | 0.622 | 0.37 | 0.596 | 0.511 | 0.765 | 0.715 | 0.831 | 0.755 | 1.04 | 1.04 | 1.1 | 1.23 | 0.204 | 0.193 | 0.185 | 0.19 | 1.05 | 0.919 | 1.1 | 1.09
HCC-78 | 0.198 | 0.245 | 0.195 | 0.174 | 0.358 | 0.311 | 0.327 | 0.286 | 0.419 | 0.368 | 0.425 | 0.475 | 0.691 | 0.906 | 0.779 | 0.739 | 0.368 | 0.352 | 0.321 | 0.393
